Experimental data as given in patent publication US20240024395A1 (priority 2020, published 2024).

Tests used:
[1] = pig, in vivo, 0.05 mg/kg
[2] = test system: mycotoxicosis due to DON ingestion; parameters: Stomach ulcer: key to the marks not given beside the values; settings: pig, in vivo

CC1=C[C@H]2O[C@@H]3[C@H](O)C[C@](C)([C@@]2(CO)[C@H](O)C1=O)[C@]31CO1 [DON, deoxynivalenol]
AUC0→∞ of unbound DON [1]: 187 ± 33
Cmax of unbound DON [1]: 30.8 ± 2.5
ADG1 average daily weight gain over the first 15 days of the challenge [2]: 0.54
ADG average daily weight gain over the last 13 days of the challenge [2]: 0.81
Kidneys [2]: Pail
Liver colour [2]: Pail
Stomach inflammation [2]: ++/−
Stomach ulcer [2]: ++
villus/crypt ratio, average [2]: 1.09
weight begin ([2]; po, 5.4 mg/kg): 12.69
weight end ([2]; po, 5.4 mg/kg): 31.75
